# Test results from patent US11578055B2, “Triazacyclododecansulfonamide (“TCD”)-based protein secretion inhibitors” (KEZAR LIFE SCIENCES, priority 2018, dated 2023).
# Where a name gives a salt, the structure may show the parent alone. Read-outs that look alike come from different tables or passages of the source.
# How the values were obtained:
# [1] = test system: multiple myeloma cell line NCl-H929; assay: H929 Cell Viability Assay; type: cell-based, human; details: Homo sapiens, NCI-H929, 48 h
# Method in brief: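 NCI-H929 myeloma cells in RPMI 1640 with 10% FBS were treated with compound dilutions for 48 h at 37 °C, and viability was then read by CellTiter-Glo luminescence. Compounds drawn without stereochemistry were tested as stereoisomer mixtures.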
# [2] = test system: multiple myeloma cell line U266B1; assay: U266 Cell Viability Assay; type: cell-based, human; details: Homo sapiens, U-266, 48 hr
# Method in brief: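 U266B1 myeloma cells in RPMI 1640 with 10% FBS were treated with compound dilutions for 48 h at 37° C, 5% CO2. Viability was read as CellTiter-Glo luminescence. Data for structures drawn without stereochemistry refer to stereoisomer mixtures.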
# [3] = test system: PD1 signal sequence plus 10 amino acids fused to Gaussia Luciferase (PD1-ss+10aa/Gaussia Luciferase); assay: Dox Induced PD1-ss-Gluc Assay; type: cell-based; details: 24 hr, read-out: 24 hr Dox Inducible PD1ssGluc 293FRT/TO: Mean IC50
# Method in brief: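 Stable Flp-In 293 T-REx line expressing the fusion under tetracycline-inducible control, plated the day before assay. Compound dilutions added with doxycycline and incubated at 37 °C, 5% CO2; unspecified stereocentres mean data refer to stereoisomer mixtures.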
# [4] = In Vitro Microsome Stability Assay (human); type: in vitro ADME
# Method in brief: (§1)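 Test article, added from a 0.25 mM DMSO stock, was incubated with liver microsomes (20 mg/mL stock) in 0.1 M potassium phosphate at 37° C, with the reaction started by NADPH. Samples were quenched with acetonitrile containing internal standard at 0 and 30 min and analysed by LC-MS/MS. Values are % remaining at 30 min versus 0 min, using IS-normalised AUC ratios.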
# [5] = In Vitro Microsome Stability Assay (mouse); type: in vitro ADME
# Method in brief: as §1
# [6] = test system: full length TNFα (amino acids 1-233) fused to Gaussia Luciferase; assay: Dox Induced TNFα-FL-Gluc Assay; type: cell-based; details: 24 hr, read-out: 24 hr Dox Inducible TNFaFLGluc 293FRT/TO: Mean IC50
# Method in brief: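 Stable Flp-In 293 T-REx line expressing doxycycline-inducible full-length TNFα fused to Gaussia luciferase; cells plated the day before, then treated with compound dilutions in doxycycline-containing medium at 37° C, 5% CO2. Unspecified stereocentres mean stereoisomer mixtures were tested.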
# [7] = In Vitro Microsome Stability Assay (monkey); type: in vitro ADME
# Method in brief: as §1
# [8] = In Vitro Microsome Stability Assay (rat); type: in vitro ADME
# Method in brief: as §1
# [9] = human liver microsomes, 30 min w/ NADPH
# [10] = mouse liver microsomes, 30 min w/ NADPH
# [11] = monkey liver microsomes, 30 min w/ NADPH
# [12] = rat liver microsomes, 30 min w/ NADPH
# [13] = H929, read-out: 48 hr H929 Viability Celltiter-Glo: Mean EC50
# [14] = U266, read-out: 48 hr U266 Viability Celltiter-Glo: Mean EC50
smiles,measurement,setting,value
"CN(C)c1ccc(S(=O)(=O)N2CCCN(CC3CCCCC3)CCCN(S(=O)(=O)N3CCCCC3)CC2)cc1 [B3, 4-{[8-(cyclohexylmethyl)-4-(piperidine-1-sulfonyl)-1,4,8-triazacycloundecan-1-yl]sulfonyl}-N,N-dimethylaniline]",EC50,"[1]; H929, Celltiter-Glo",9.44 µM
same,EC50,"[2]; U266, Celltiter-Glo",12.6 µM
same,IC50,"[3]; Dox inducible, 293FRT/TO cells",7.38 µM
same,Liver Microsome Stability-% Left after 30 min w/ NADPH (%) Human,[4]; [9],0.26%
same,Liver Microsome Stability-% Left after 30 min w/ NADPH (%) Mouse,[5]; [10],0.15%
same,IC50,"[6]; Dox inducible, 293FRT/TO cells",> 25 µM
same,Liver Microsome Stability-% Left after 30 min w/ NADPH (%) Monkey,[7]; [11],0.08%
same,Liver Microsome Stability-% Left after 30 min w/ NADPH (%) Rat,[8]; [12],0.1%
"O=S(=O)(c1ccccc1)N1CCCN(CC2CCCCC2)CCCN(S(=O)(=O)N2CCCCC2)CC2(CC2)C1 [A34, 5-(benzenesulfonyl)-9-(cyclohexylmethyl)-13-(piperidine-1-sulfonyl)-5,9,13-triazaspiro[2.11]tetradecane]",EC50,[1]; [13],> 25 µM
same,EC50,[2]; [14],> 25 µM
same,IC50,[3]; 293FRT/TO,> 25 µM
same,Liver Microsome Stability-% Left after 30 min w/ NADPH (%) Human,"[4]; human, 30 min, NADPH",0.03%
same,Liver Microsome Stability-% Left after 30 min w/ NADPH (%) Mouse,"[5]; mouse, 30 min, NADPH",0.24%
same,IC50,[6]; 293FRT/TO,> 25 µM
same,Liver Microsome Stability-% Left after 30 min w/ NADPH (%) Monkey,"[7]; monkey, 30 min, NADPH",0.09%
same,Liver Microsome Stability-% Left after 30 min w/ NADPH (%) Rat,"[8]; rat, 30 min, NADPH",0.12%
"C=C1CN(S(=O)(=O)c2ccc(N(C)C)cc2)CCCN(CC2CCCCC2)CCCN(S(=O)(=O)N2CCC(OC(C)C)CC2)C1 [A66, 4-{[9-(cyclohexylmethyl)-3-methylidene-5-{[4-(propan-2-yloxy)piperidin-1-yl]sulfonyl}-1,5,9-triazacyclododecan-1-yl]sulfonyl}-N,N-dimethylaniline]",EC50,[1]; [13],9.21 µM
same,EC50,[2]; [14],> 25 µM
same,IC50,[3]; 293FRT/TO,0.188 µM
same,Liver Microsome Stability-% Left after 30 min w/ NADPH (%) Human,"[4]; human, 30 min, NADPH",0.13%
same,Liver Microsome Stability-% Left after 30 min w/ NADPH (%) Mouse,"[5]; mouse, 30 min, NADPH",0.02%
same,IC50,[6]; 293FRT/TO,3.5 µM
same,Liver Microsome Stability-% Left after 30 min w/ NADPH (%) Monkey,"[7]; monkey, 30 min, NADPH",0.35%
same,Liver Microsome Stability-% Left after 30 min w/ NADPH (%) Rat,"[8]; rat, 30 min, NADPH",0.39%
"C=C1CN(S(=O)(=O)c2ccc(N(C)C)cc2)CCCN(CC2CCCCC2)CCCN(S(=O)(=O)N2CCc3cc(OC)ccc3C2)C1 [A71, 4-{[9-(cyclohexylmethyl)-5-[(6-methoxy-1,2,3,4-tetrahydroisoquinolin-2-yl)sulfonyl]-3-methylidene-1,5,9-triazacyclododecan-1-yl]sulfonyl}-N,N-dimethylaniline]",EC50,[1]; [13],7.72 µM
same,EC50,[2]; [14],> 25 µM
same,IC50,[3]; 293FRT/TO,0.0633 µM
same,Liver Microsome Stability-% Left after 30 min w/ NADPH (%) Human,"[4]; human, 30 min, NADPH",5.55%
same,Liver Microsome Stability-% Left after 30 min w/ NADPH (%) Mouse,"[5]; mouse, 30 min, NADPH",11.5%
same,IC50,[6]; 293FRT/TO,2.01 µM
same,Liver Microsome Stability-% Left after 30 min w/ NADPH (%) Monkey,"[7]; monkey, 30 min, NADPH",6.75%
same,Liver Microsome Stability-% Left after 30 min w/ NADPH (%) Rat,"[8]; rat, 30 min, NADPH",17.2%
"CN(C)c1ccc(S(=O)(=O)N2CCCN(CC3CCCCC3)CCCN(S(=O)(=O)N3CCCCC3)CC3(CC3)C2)cc1 [A19, 4-((9-(cyclohexylmethyl)-13-(piperidin-1-ylsulfonyl)-5,9,13-triazaspiro[2.11]tetradecan-5-yl)sulfonyl)-N,N-dimethylaniline hydrochloride]",EC50,[1]; [13],> 25 µM
same,EC50,[2]; [14],21.9 µM
same,IC50,[3]; 293FRT/TO,0.326 µM
same,Liver Microsome Stability-% Left after 30 min w/ NADPH (%) Human,"[4]; human, 30 min, NADPH",0.05%
same,Liver Microsome Stability-% Left after 30 min w/ NADPH (%) Mouse,"[5]; mouse, 30 min, NADPH",0.24%
same,IC50,[6]; 293FRT/TO,> 25 µM
same,Liver Microsome Stability-% Left after 30 min w/ NADPH (%) Monkey,"[7]; monkey, 30 min, NADPH",0.08%
same,Liver Microsome Stability-% Left after 30 min w/ NADPH (%) Rat,"[8]; rat, 30 min, NADPH",0.1%
"CN(C)c1ccc(S(=O)(=O)NCCCN(CCCNS(=O)(=O)N2CCC(c3ccccc3)CC2)CC2CCCCC2)cc1 [B7, N-{3-[(cyclohexylmethyl)(3-{[(4-phenylpiperidin-1-yl)sulfonyl]amino}propyl)amino]propyl}-4-(dimethylamino)benzene-1-sulfonamide]",EC50,"[1]; H929, Celltiter-Glo",6.86 µM
same,EC50,"[2]; U266, Celltiter-Glo",7.48 µM
same,IC50,"[3]; Dox inducible, 293FRT/TO cells",6.9 µM
same,Liver Microsome Stability-% Left after 30 min w/ NADPH (%) Human,[4]; [9],0.03%
same,Liver Microsome Stability-% Left after 30 min w/ NADPH (%) Mouse,[5]; [10],1.47%
same,IC50,"[6]; Dox inducible, 293FRT/TO cells",24.3 µM
same,Liver Microsome Stability-% Left after 30 min w/ NADPH (%) Monkey,[7]; [11],0.04%
same,Liver Microsome Stability-% Left after 30 min w/ NADPH (%) Rat,[8]; [12],0.58%
"COC1CN(S(=O)(=O)c2ccc(N(C)C)cc2)CCCN(CC2CCCCC2)CCCN(S(=O)(=O)N2CCC(c3ccccc3)CC2)C1 (centres unmarked) [A61, 4-{[9-(cyclohexylmethyl)-3-methoxy-5-[(4-phenylpiperidin-1-yl)sulfonyl]-1,5,9-triazacyclododecan-1-yl]sulfonyl}-N,N-dimethylaniline]",EC50,[1]; [13],> 25 µM
same,EC50,[2]; [14],> 25 µM
same,IC50,[3]; 293FRT/TO,0.956 µM
same,Liver Microsome Stability-% Left after 30 min w/ NADPH (%) Human,"[4]; human, 30 min, NADPH",13.3%
same,Liver Microsome Stability-% Left after 30 min w/ NADPH (%) Mouse,"[5]; mouse, 30 min, NADPH",17.9%
same,IC50,[6]; 293FRT/TO,> 25 µM
same,Liver Microsome Stability-% Left after 30 min w/ NADPH (%) Monkey,"[7]; monkey, 30 min, NADPH",8.96%
same,Liver Microsome Stability-% Left after 30 min w/ NADPH (%) Rat,"[8]; rat, 30 min, NADPH",19.6%
"C=C1CN(S(=O)(=O)c2ccc(N(C)C)cc2)CCCN(CC2CCCCC2)CCCN(S(=O)(=O)N2CCC(c3ccccc3Cl)CC2)C1 [A57, 4-[(5-{[4-(2-chlorophenyl)piperidin-1-yl]sulfonyl}-9-(cyclohexylmethyl)-3-methylidene-1,5,9-triazacyclododecan-1-yl)sulfonyl]-N,N-dimethylaniline]",EC50,[1]; [13],> 25 µM
same,EC50,[2]; [14],> 25 µM
same,IC50,[3]; 293FRT/TO,0.0734 µM
same,Liver Microsome Stability-% Left after 30 min w/ NADPH (%) Human,"[4]; human, 30 min, NADPH",31.9%
same,Liver Microsome Stability-% Left after 30 min w/ NADPH (%) Mouse,"[5]; mouse, 30 min, NADPH",60.2%
same,IC50,[6]; 293FRT/TO,7.81 µM
same,Liver Microsome Stability-% Left after 30 min w/ NADPH (%) Monkey,"[7]; monkey, 30 min, NADPH",28.5%
same,Liver Microsome Stability-% Left after 30 min w/ NADPH (%) Rat,"[8]; rat, 30 min, NADPH",84%
O=S(=O)(C1CCCCC1)N1CCCN(CC2CCCCC2)CCCN(S(=O)(=O)N2CCCCC2)CC2(CC2)C1 [A41],EC50,[1]; [13],> 25 µM
same,EC50,[2]; [14],> 25 µM
same,IC50,[3]; 293FRT/TO,17.5 µM
same,Liver Microsome Stability-% Left after 30 min w/ NADPH (%) Human,"[4]; human, 30 min, NADPH",0.08%
same,Liver Microsome Stability-% Left after 30 min w/ NADPH (%) Mouse,"[5]; mouse, 30 min, NADPH",0.2%
same,IC50,[6]; 293FRT/TO,> 25 µM
same,Liver Microsome Stability-% Left after 30 min w/ NADPH (%) Monkey,"[7]; monkey, 30 min, NADPH",0.1%
same,Liver Microsome Stability-% Left after 30 min w/ NADPH (%) Rat,"[8]; rat, 30 min, NADPH",0.14%
"C=C1CN(S(=O)(=O)c2ccc(N(C)C)cc2)CCCN(CC2CCCCC2)CCCN(S(=O)(=O)N2CCN(c3ccccc3)[C@H](C)C2)C1 [A46, 4-{[9-(cyclohexylmethyl)-5-{[(3 R)-3-methyl-4-phenylpiperazin-1-yl]sulfonyl}-3-methylidene-1,5,9-triazacyclododecan-1-yl]sulfonyl}-N,N-dimethylaniline]",EC50,[1]; [13],3.34 µM
same,EC50,[2]; [14],> 25 µM
same,IC50,[3]; 293FRT/TO,0.0501 µM
same,Liver Microsome Stability-% Left after 30 min w/ NADPH (%) Human,"[4]; human, 30 min, NADPH",6.12%
same,Liver Microsome Stability-% Left after 30 min w/ NADPH (%) Mouse,"[5]; mouse, 30 min, NADPH",3.63%
same,IC50,[6]; 293FRT/TO,1.76 µM
same,Liver Microsome Stability-% Left after 30 min w/ NADPH (%) Monkey,"[7]; monkey, 30 min, NADPH",1.44%
same,Liver Microsome Stability-% Left after 30 min w/ NADPH (%) Rat,"[8]; rat, 30 min, NADPH",4.46%
